Publication PMC11885754, “Engineered phenylalanine hydroxylase coupled with an effective cofactor synthesis and regeneration system for high-yield production of 5-hydroxytryptophan” (Bioresources and Bioprocessing, 2025)

Molecular target: T1, XcPAH (Xanthomonas campestris, UniProt Q8PE27)
T1 construct: gene pah; full length 296 aa, synthesized gene in pET30a (BamHI/XhoI) co-expressed with CvPCD and EcFolM in E. coli BL21(DE3)-derived strain TRP1
T1 sequence (Q8PE27 1-296): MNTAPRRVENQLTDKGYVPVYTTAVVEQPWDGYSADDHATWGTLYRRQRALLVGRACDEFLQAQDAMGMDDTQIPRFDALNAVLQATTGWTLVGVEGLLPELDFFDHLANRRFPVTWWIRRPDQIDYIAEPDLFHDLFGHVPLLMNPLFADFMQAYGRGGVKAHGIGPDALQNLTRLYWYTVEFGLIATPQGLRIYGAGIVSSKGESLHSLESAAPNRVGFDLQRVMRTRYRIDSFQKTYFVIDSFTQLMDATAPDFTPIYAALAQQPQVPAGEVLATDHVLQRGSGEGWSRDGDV
Assay: whole-cell conversion of L-Phe to L-Tyr, HPLC
Type: cell-based
Conditions: E. coli TRP1 cells, 10 mM L-Phe, endogenous MH4 with CvPCD-EcFolM regeneration, 25 °C, 24 h, pH about 7.0

N[C@@H](Cc1ccccc1)C(=O)O [L-Phe]
whole-cell conversion of L-Phe to L-Tyr, HPLC: (TRP1-XC1 and TRP1-CT1) were capable of converting L-Phe into L-Tyr
